For experiment [1], the target named is T1, Beta-2 adrenergic receptor (Homo sapiens, UniProt P07550). Kind of experiment: Dose response for HTS for Beta-2AR agonists via FAP method from Powderset1. In kind it is functional.
The target in experiment [2] is T1, Beta-2 adrenergic receptor. Briefly: beta2AR agonists driving receptor internalization, dose response, cell-based, FAP fluorogen, flow cytometry, cherry pick 1 (AID 588763). The experiment is classed as functional. Background: In flow cytometry, cells or beads pass a laser one at a time.
The nature of experiment [3]: cytotoxicity in HepG2 cells, dose response, cytotoxicity control, cell-based, cherry-picked samples (AID 1053183). In kind it is functional.
The nature of experiment [4]: cytotoxicity in HEK293 cells, dose response, cytotoxicity control, cell-based, cherry-picked samples (AID 1053185). In kind it is functional.
For another experiment, the target named is Protein Wnt-3a (Mus musculus, UniProt P27467). Kind of experiment: SAR analysis of small molecule antagonists of Gli-SUFU in a Wnt3a luminescent reporter assay. In kind it is functional. (In general: In a reporter assay the amount or activity of a reporter protein is the signal.)
In the next experiment the target is Melanocortin receptor 4 (Homo sapiens, UniProt P32245). The experiment is classed as functional, cell-based.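 Further: Cell-based assay with luminescence read-out, confirmatory dose-response testing for agonist activity of biased ligands at MC4R; human U2OS cells with tagged receptor and beta-arrestin; potency of agonists that increase receptor coupling to beta-arrestin.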
Experiment [5] concerns the target T2, ATP-dependent translocase ABCB1 (Homo sapiens, UniProt P08183). Kind of experiment: ABCG2 efflux pump inhibitor potency, dose response, Ig-MXP3 cells, JC-1, flow cytometry, set 2 (AID 504566).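 Further: flow cytometry median green fluorescence of retained JC-1 dye; potency of efflux pump inhibition measured as rising substrate retention.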 The experiment is classed as functional. As to conditions: read-out: EC50_MICROM_.
A short description of experiment [6]: HEp-2 cell cytotoxicity, dose response, cytotoxicity control for RSV inhibitor project, HTS (AID 2410). The experiment is classed as functional. As to conditions: human respiratory syncytial virus.
The target of experiment [7] is T2, ATP-dependent translocase ABCB1. Kind of experiment: ABCB1 efflux inhibitor potency, dose response, Jurkat-DNR cells, JC-1, flow cytometry, set 2 (AID 504569).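 Further: potency of pump inhibitors that raise cellular JC-1 green fluorescence up to the nicardipine level.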 In kind it is functional. As to conditions: read-out: EC50_MICROM_.
The test system of another experiment is HEK293. Kind of experiment: HEK293T cell cytotoxicity, dose response, cytotoxicity control, ATP luminescence, cherry-pick samples (AID 687005).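 Further: cells exposed to compound for 48 hours.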 In kind it is functional, cell-based. As to conditions: Homo sapiens.
Experiment [8] in a line: HEK293 Cytotoxicity Assay Measured in Cell-Based System Using Plate Reader - 7071-01_Inhibitor_Dose_CherryPick_Activity_Set2. The experiment is classed as functional.
The subject of a further experiment is Streptococcus. Briefly: Group A Streptococcus viability loss, dose response, counter-screen for streptokinase expression inhibitor project, luminescence, BacTiterGlo (AID 1915).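 Further: potency for reduction of bacterial viability or growth.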 The experiment is classed as functional, organism-based. On the technique in general: Counterscreens check selectivity or assay interference.
Experiment [9] is described as follows: human group III sPLA2 inhibitors, dose response, biochemical, QFRET, IC50 (AID 743457).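 Further: green fluorescence rise as the enzyme cleaves BODIPY PC-A2 in liposomes; potency for inhibition of the enzyme.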
Experiment [10] relates to Streptococcus sp. 'group A'. Kind of experiment: growth inhibition of control SK(-) GAS strain, dose response, counter-screen for streptokinase expression inhibitor project, luminescence, kanamycin, BacTiterGlo, confirmation (AID 1900). The experiment is classed as functional, organism-based.
Experiment [11] is described as follows: non-specific cell cytotoxicity, dose response, cytotoxicity control for PAX8 inhibitor project, plate reader, dry powder samples (AID 743021). The experiment is classed as functional, cell-based.
Experiment [12] is described as follows: Fluorescence-based cell-based high throughput dose response assay for inhibitors of the interaction of nucleotide-binding oligomerization domain containing 2 (NOD2) and the receptor-interacting serine-threonine kinase 2 (RIPK2). The experiment is classed as functional. Conditions: Homo sapiens.
Another experiment deals with Beta Lactamase (Pseudomonas aeruginosa, UniProt Q932Y6). Briefly: beta-lactamase reporter inhibitor potency, dose response, artefact control for NOD2-RIPK2 interaction inhibitor project, BLA reporter cells, FRET fluorescence (AID 651552). The experiment is classed as functional, cell-based.
Another experiment concerns the target Paired box protein Pax-8 (Homo sapiens, UniProt Q06710). Briefly: inhibitors of PAX8-driven TPO luciferase reporter, dose response, RMG-I cells, cherry-pick (AID 687027).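 Further: luciferase reporter driven by Pax8 target thyroperoxidase promoter measured by SteadyGlo luminescence.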 In kind it is functional, cell-based.
The nature of experiment [13]: Luminescence Cell-Based Dose Retest to Confirm Inhibitors of Cancer Stem Cells. [Related pubchem assays (depositor defined):AID2717, AID2721]. The experiment is classed as functional. As to conditions: Homo sapiens.
Experiment [14] in a line: control 3'UTR Renilla luciferase suppression, dose response, counter-screen for Shn3 inhibitor project, cell-based, Clone20-Shn3RL, cherry-picked (AID 624133). In kind it is functional.
A short description of experiment [15]: reduction of Shn3 3'UTR firefly luciferase signal, dose response, Schnurri-3 inhibitor project, cell-based, Clone20 osteoblasts, cherry-pick, set 2 (AID 720490).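 Further: actives lower the luminescence signal as inhibitors.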 In kind it is functional.
A short description of experiment [16]: Shn3 3'UTR reporter inhibitors, dose response, cell-based, Clone20 osteoblasts, firefly luciferase, cherry-picked (AID 624132).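 Further: firefly luciferase luminescence from reporter carrying the Shn3 3'UTR in osteoblasts.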 The experiment is classed as functional.
Experiment [17] is described as follows: inhibitors of control Renilla luciferase reporter, dose response, counter-screen for Shn3 3'UTR targeting project, Clone20-Shn3RL cells, dual-Glo, cherry-pick, set 2 (AID 720724). In kind it is functional, cell-based. Conditions: Dual-Go Shn3RL.
The nature of experiment [18]: HepG2 cell cytotoxicity, dose response, cytotoxicity control for Shn3 inhibitor project, CellTiter-Glo, cherry-picked (AID 624134). In kind it is functional, cell-based.
The target in experiment [19] is Oxysterols receptor LXR-beta (Homo sapiens, UniProt P55055). The experiment is classed as functional, cell-based.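 Further: agonist activity at LXR measured by a cell-based luminescence readout across a dose range, run as a counterscreen for daf-12 agonists; HEK293 cells with Gal4-LXR fusion and GAL4-driven luciferase reporter; potency for activation of Gal4-LXR reporter so compounds are agonists.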

Values joined by “and” are separate entries in the source; they are usually repeats but may differ in a detail not shown here. Identical values can stand only once. Active and inactive are the calls of the source.

Usually AC50 stands for the concentration giving half of the maximal activity seen. For orientation: IC50 means the concentration at which inhibition is half-maximal. Usually CC50 stands for the concentration giving 50% cytotoxicity.

T1 sequence (P07550 whole entry): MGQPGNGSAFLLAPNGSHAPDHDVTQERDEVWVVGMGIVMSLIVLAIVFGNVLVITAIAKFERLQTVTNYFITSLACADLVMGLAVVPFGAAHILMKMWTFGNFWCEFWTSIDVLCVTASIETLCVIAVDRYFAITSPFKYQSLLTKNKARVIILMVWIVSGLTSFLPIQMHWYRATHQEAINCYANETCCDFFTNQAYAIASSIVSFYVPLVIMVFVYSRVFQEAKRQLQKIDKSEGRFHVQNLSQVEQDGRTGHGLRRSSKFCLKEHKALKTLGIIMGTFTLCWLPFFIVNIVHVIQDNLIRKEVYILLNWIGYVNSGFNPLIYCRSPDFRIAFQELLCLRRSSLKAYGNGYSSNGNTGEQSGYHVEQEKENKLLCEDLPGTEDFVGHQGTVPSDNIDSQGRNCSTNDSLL
T2 sequence (P08183 whole entry): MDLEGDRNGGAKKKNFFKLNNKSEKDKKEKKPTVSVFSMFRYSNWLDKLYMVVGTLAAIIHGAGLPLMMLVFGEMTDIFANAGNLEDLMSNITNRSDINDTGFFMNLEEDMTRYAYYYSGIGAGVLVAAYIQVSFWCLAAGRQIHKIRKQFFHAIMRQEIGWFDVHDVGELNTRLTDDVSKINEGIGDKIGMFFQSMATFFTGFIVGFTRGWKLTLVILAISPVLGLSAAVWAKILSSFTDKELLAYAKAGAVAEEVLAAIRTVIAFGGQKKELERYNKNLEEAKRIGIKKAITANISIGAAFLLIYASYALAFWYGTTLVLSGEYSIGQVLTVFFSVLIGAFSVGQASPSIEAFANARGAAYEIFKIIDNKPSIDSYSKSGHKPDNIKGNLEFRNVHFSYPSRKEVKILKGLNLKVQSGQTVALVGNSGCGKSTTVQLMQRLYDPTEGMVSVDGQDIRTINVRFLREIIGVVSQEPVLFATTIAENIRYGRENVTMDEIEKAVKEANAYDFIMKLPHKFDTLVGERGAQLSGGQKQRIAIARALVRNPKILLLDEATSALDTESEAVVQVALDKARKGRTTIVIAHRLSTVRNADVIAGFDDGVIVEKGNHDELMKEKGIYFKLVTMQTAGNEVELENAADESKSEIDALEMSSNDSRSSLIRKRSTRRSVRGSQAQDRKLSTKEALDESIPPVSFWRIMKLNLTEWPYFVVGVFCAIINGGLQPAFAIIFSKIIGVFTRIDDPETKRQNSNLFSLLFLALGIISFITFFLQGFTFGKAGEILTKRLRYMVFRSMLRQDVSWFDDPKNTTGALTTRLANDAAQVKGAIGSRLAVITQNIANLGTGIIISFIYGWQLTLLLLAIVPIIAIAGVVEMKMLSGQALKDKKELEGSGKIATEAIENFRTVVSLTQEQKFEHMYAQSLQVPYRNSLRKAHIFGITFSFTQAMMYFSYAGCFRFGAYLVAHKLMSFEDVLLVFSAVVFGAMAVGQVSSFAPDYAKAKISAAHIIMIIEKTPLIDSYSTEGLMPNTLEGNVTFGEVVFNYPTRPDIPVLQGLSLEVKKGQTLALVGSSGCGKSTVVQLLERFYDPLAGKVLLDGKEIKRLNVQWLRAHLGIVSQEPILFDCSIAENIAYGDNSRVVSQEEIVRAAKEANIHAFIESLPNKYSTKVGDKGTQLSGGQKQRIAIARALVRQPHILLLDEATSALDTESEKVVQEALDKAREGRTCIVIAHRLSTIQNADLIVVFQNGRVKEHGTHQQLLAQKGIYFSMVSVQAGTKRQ
Chain of Protein Wnt-3a (P27467 whole entry): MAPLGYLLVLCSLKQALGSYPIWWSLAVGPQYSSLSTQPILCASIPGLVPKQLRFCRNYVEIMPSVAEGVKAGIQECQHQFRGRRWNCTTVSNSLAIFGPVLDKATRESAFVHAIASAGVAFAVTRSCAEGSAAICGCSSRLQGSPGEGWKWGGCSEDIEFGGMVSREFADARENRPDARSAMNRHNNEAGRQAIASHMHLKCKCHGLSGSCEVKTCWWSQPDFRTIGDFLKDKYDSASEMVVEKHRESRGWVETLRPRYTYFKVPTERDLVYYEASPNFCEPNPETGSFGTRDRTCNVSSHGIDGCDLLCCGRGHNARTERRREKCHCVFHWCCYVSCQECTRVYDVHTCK
Chain of Paired box protein Pax-8 (Q06710 whole entry): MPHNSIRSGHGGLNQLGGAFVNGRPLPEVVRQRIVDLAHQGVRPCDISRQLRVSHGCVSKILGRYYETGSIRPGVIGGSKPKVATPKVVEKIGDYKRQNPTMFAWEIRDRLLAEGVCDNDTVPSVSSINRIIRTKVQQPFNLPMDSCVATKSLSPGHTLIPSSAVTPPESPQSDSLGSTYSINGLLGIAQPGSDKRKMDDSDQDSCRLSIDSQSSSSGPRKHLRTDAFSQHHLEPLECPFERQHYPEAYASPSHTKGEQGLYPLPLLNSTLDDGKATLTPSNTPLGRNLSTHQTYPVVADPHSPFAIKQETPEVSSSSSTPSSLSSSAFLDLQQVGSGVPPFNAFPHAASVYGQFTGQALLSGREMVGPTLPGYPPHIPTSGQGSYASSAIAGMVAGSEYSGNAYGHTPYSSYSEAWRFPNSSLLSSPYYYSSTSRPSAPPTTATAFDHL
Chain of Melanocortin receptor 4 (P32245 whole entry): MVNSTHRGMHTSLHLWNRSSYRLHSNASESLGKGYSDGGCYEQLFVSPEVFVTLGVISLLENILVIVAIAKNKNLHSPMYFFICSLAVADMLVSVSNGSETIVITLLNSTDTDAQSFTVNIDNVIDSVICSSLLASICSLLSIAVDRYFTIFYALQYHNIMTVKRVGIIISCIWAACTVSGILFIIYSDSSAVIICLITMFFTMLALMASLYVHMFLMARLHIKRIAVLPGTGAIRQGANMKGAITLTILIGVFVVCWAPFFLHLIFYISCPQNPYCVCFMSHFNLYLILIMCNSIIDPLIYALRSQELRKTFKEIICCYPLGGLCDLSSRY
Chain of Beta Lactamase (Q932Y6 whole entry): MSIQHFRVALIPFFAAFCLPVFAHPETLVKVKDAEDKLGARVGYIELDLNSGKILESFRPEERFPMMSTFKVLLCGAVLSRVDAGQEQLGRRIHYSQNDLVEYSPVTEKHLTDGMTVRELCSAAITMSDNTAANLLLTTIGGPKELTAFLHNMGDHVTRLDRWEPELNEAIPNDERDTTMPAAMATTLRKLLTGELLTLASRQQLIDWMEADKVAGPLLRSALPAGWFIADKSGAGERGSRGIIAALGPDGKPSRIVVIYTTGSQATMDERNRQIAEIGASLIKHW
Chain of Oxysterols receptor LXR-beta (P55055 whole entry, the tested form may be a part): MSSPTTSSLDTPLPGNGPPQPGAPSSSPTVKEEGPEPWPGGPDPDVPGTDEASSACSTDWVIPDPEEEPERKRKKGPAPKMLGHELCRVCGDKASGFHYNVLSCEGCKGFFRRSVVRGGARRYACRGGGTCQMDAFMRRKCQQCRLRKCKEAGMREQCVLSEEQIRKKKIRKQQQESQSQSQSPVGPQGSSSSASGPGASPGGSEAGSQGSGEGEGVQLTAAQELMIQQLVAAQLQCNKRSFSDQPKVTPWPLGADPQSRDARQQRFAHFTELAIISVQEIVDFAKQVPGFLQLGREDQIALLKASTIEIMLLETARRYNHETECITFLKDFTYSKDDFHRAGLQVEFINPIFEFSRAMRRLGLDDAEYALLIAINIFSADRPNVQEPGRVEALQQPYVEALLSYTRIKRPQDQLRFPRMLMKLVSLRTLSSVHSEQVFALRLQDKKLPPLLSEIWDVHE

Take `CC(=O)Nc1ccc(S(=O)(=O)N2CCCCC2c2cccnc2)cc1` (stereo not given): the EC50 in experiment [1] was 23.3 nM (active); in [2] it was 262 nM (active) and 107 nM (active).
On to `C[C@H]1CNC(=O)[C@@H](Cc2ccc(C(F)(F)F)cc2)CCn2nncc2COC1`, for which the AC50 in experiment [3] was 35.5 µM (active); in experiment [4], > 52 µM (inactive).
For the compound `CN(C)c1cc(NC(=O)c2cccc(F)c2)ncn1`, the IC50 at Protein Wnt-3a was > 21.8 µM (inactive).
Consider `Cc1cc(N2CCN(C(=O)c3ccco3)CC2)n2nc(-c3cccc(Cl)c3)cc2n1`, for which the EC50 on Melanocortin receptor 4 is > 89.2 µM (inactive); in experiment [5], 2.24 µM (active); in experiment [7], 5.05 µM (inactive). In addition, the half-maximal cytotoxic concentration (CC50) in [6] was 34.7 µM (active).
With `C[C@@H]1CN([C@@H](C)CO)C(=O)Cc2cc(NC(=O)c3ccncc3)ccc2O[C@H]1CN(C)Cc1ccncc1`, the AC50 (in the experiment on HEK293; in [8]) was > 52 µM (inactive) in each case.
On to `O=C(NNC(=S)NC(=O)c1cccs1)c1ccc(NC(=O)c2ccccc2)cc1`, for which the values for the EC50 (in the experiment with Streptococcus; in experiment [10]) were 6.3 µM (active) and 479 nM (active), respectively. Moreover, in experiment [9], the IC50 was 51.9 µM (inactive).
In the case of `CC(C)(C)[C@H](N)C(=O)N[C@H]1CCC2C3CC=C4C[C@@H](O)CC[C@]4(C)C3CC[C@@]21C` (stereo not given in full), the AC50 was 40.7 µM (active) in [11], 9.31 µM (active) at Paired box protein Pax-8 and 3.67 µM (active) in [13]. The IC50 in experiment [12] is 17.7 µM (inactive); on Beta Lactamase, 19.5 µM (inactive).
In the case of `Cc1ccc2nc(NC(=O)C3CCN(S(=O)(=O)c4ccc5c(c4)oc(=O)n5C)CC3)sc2c1`, the AC50 is 11.1 µM (active) in [14]; 7.23 µM (active) in [15]; 3.35 µM (active) in experiment [16]; 29.1 µM (active) in experiment [17]; 54.7 µM (active) in [18].
With `Nc1nn(-c2cccc(F)n2)cc1-c1ccccc1`, in experiment [19], the EC50 is > 67.5 µM (inactive).
